target: T1, GCase (Homo sapiens, UniProt P04062); experiment: activation of GCase in a live cell PFB assay in HELA cells; assay type: cell-based; details: activation of GCase, EC50 ranges
T1 construct: endogenous in cells; host or cells: HeLa cells
T1 sequence (P04062 40-536): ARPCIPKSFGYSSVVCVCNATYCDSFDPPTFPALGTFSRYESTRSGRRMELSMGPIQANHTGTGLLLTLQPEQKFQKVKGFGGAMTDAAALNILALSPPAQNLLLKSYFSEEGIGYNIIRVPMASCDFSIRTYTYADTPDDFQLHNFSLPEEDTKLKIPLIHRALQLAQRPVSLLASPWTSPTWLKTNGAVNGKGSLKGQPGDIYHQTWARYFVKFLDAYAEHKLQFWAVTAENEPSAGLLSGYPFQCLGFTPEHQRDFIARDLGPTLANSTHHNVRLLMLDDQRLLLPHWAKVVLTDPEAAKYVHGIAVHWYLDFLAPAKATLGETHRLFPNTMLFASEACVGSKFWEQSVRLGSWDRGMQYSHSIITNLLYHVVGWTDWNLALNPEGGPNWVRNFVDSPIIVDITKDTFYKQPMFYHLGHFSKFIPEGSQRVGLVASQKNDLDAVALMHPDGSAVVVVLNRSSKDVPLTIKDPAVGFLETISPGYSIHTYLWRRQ
Description: Exemplary compounds were evaluated for activation of GCase in a live cell PFB assay in HELA cells (essentially as described in Ysselstein et al., “LRRK2 kinase activity regulates lysosomal glucocerebrosidase in neurons derived from Parkinson's disease patients” Nature Communications (2019) 10:5570). […] EC50 ranges: A: <10 μM; B: >10-50 μM; C: >50-100 μM; D: >100 μM.

| SMILES | EC50 |
| --- | --- |
| FC(F)Cn1ncc2ncc(N3CC4(CCN(c5ncccc5C(F)(F)F)CC4)C3)nc21 [Compound 123, 2-[1-(2,2-difluoroethyl)-1H-pyrazolo[3,4-b]pyrazin-6-yl]-7-[3-(trifluoromethyl)pyridin-2-yl]-2,7-diazaspiro[3.5]nonane] | 10 to 50 µM |
| FC(F)Cn1ncc2ncc(N3CC4(CCN(c5cccc(C(F)(F)F)n5)CC4)C3)nc21 [Compound 125, 2-[1-(2,2-difluoroethyl)-1H-pyrazolo[3,4-b]pyrazin-6-yl]-7-[6-(trifluoromethyl)pyridin-2-yl]-2,7-diazaspiro[3.5]nonane] | 10 to 50 µM |
| FC(F)Cn1ncc2ncc(N3CC4(CCN(c5cncc(C(F)(F)F)c5)CC4)C3)nc21 [Compound 126, 2-[1-(2,2-difluoroethyl)-1H-pyrazolo[3,4-b]pyrazin-6-yl]-7-[5-(trifluoromethyl)pyridin-3-yl]-2,7-diazaspiro[3.5]nonane] | < 10 µM |
| FC(F)Cn1ncc2ncc(N3CC4(CCN(c5ccc(C(F)(F)F)nc5)CC4)C3)nc21 [Compound 127, 2-[1-(2,2-difluoroethyl)-1H-pyrazolo[3,4-b]pyrazin-6-yl]-7-[6-(trifluoromethyl)pyridin-3-yl]-2,7-diazaspiro[3.5]nonane] | < 10 µM |
| FC(F)Cn1ncc2ncc(N3CC4(CCN(c5cnccc5C(F)(F)F)CC4)C3)nc21 [Compound 128, 2-[1-(2,2-difluoroethyl)-1H-pyrazolo[3,4-b]pyrazin-6-yl]-7-[4-(trifluoromethyl)pyridin-3-yl]-2,7-diazaspiro[3.5]nonane] | 10 to 50 µM |
| FC(F)Cn1ncc2ncc(N3CC4(CCN(c5cccnc5C(F)(F)F)CC4)C3)nc21 [Compound 129, 2-[1-(2,2-difluoroethyl)-1H-pyrazolo[3,4-b]pyrazin-6-yl]-7-[2-(trifluoromethyl)pyridin-3-yl]-2,7-diazaspiro[3.5]nonane] | 10 to 50 µM |
| FC(F)Cn1ncc2ncc(NC3CCC4(CC3)CN(c3cccc(C(F)(F)F)n3)C4)nc21 [Compound 130, N-[1-(2,2-difluoroethyl)-1H-pyrazolo[3,4-b]pyrazin-6-yl]-2-[6-(trifluoromethyl)pyridin-2-yl]-2-azaspiro[3.5]nonan-7-amine] | 10 to 50 µM |
| FC(F)Cn1ncc2ncc(N3CC4(CC(COc5cccnc5C(F)(F)F)C4)C3)nc21 [Compound 131, 2-[1-(2,2-difluoroethyl)-1H-pyrazolo[3,4-b]pyrazin-6-yl]-6-({[2-(trifluoromethyl)pyridin-3-yl]oxy}methyl)-2-azaspiro[3.3]heptane] | < 10 µM |
| FC(F)Cn1ncc2ncc(N3CC4(CC(COc5cc(C(F)(F)F)ccn5)C4)C3)nc21 [Compound 132, 2-[1-(2,2-difluoroethyl)-1H-pyrazolo[3,4-b]pyrazin-6-yl]-6-({[4-(trifluoromethyl)pyridin-2-yl]oxy}methyl)-2-azaspiro[3.3]heptane] | 10 to 50 µM |
| FC(F)Cn1ncc2ncc(N3CC4(CC(COc5ccc(C(F)(F)F)nc5)C4)C3)nc21 [Compound 133, 2-[1-(2,2-difluoroethyl)-1H-pyrazolo[3,4-b]pyrazin-6-yl]-6-({[6-(trifluoromethyl)pyridin-3-yl]oxy}methyl)-2-azaspiro[3.3]heptane] | < 10 µM |
| FC(F)Cn1ncc2ncc(N3CC4(CC(COc5cccc(C(F)(F)F)n5)C4)C3)nc21 [Compound 134, 2-[1-(2,2-difluoroethyl)-1H-pyrazolo[3,4-b]pyrazin-6-yl]-6-({[6-(trifluoromethyl)pyridin-2-yl]oxy}methyl)-2-azaspiro[3.3]heptane] | < 10 µM |
| FC(F)(F)Cn1ncc2ncc(N3CC4(CCCN(c5ccc(C(F)(F)F)nc5)C4)C3)nc21 [Compound 136, 2-[1-(2,2,2-trifluoroethyl)-1H-pyrazolo[3,4-b]pyrazin-6-yl]-6-[6-(trifluoromethyl)pyridin-3-yl]-2,6-diazaspiro[3.5]nonane] | 10 to 50 µM |
| Cc1nn(CC(F)F)c2nc(N3CC4(CCCN(c5ccc(C(F)(F)F)nc5)C4)C3)cnc12 [Compound 137, 2-[1-(2,2-difluoroethyl)-3-methyl-1H-pyrazolo[3,4-b]pyrazin-6-yl]-6-[6-(trifluoromethyl)pyridin-3-yl]-2,6-diazaspiro[3.5]nonane] | > 100 µM |
| FC(F)(F)c1ccc(N2CCCC3(C2)CN(c2cncc(-c4nncs4)n2)C3)cn1 [Compound 138, 2-[6-(1,3,4-thiadiazol-2-yl)pyrazin-2-yl]-6-[6-(trifluoromethyl)pyridin-3-yl]-2,6-diazaspiro[3.5]nonane] | 10 to 50 µM |
| FC(F)(F)Cn1ncc2ncc(N3CCC4(CCN(c5cc(C(F)(F)F)ccn5)CC4)C3)nc21 [Compound 139, 2-[1-(2,2,2-trifluoroethyl)-1H-pyrazolo[3,4-b]pyrazin-6-yl]-8-[4-(trifluoromethyl)pyridin-2-yl]-2,8-diazaspiro[4.5]decane] | 10 to 50 µM |
| Cc1nn(CC(F)F)c2nc(N3CCC4(CCN(c5cc(C(F)(F)F)ccn5)CC4)C3)cnc12 [Compound 140, 2-[1-(2,2-difluoroethyl)-3-methyl-1H-pyrazolo[3,4-b]pyrazin-6-yl]-8-[4-(trifluoromethyl)pyridin-2-yl]-2,8-diazaspiro[4.5]decane] | 10 to 50 µM |
| FC(F)(F)c1ccnc(N2CCC3(CC2)CCN(c2cncc(-c4nncs4)n2)C3)c1 [Compound 141, 2-[6-(1,3,4-thiadiazol-2-yl)pyrazin-2-yl]-8-[4-(trifluoromethyl)pyridin-2-yl]-2,8-diazaspiro[4.5]decane] | 10 to 50 µM |
| FC(F)Cn1ncc2ncc(N3CCC4(CC3)CCN(c3ncccc3C(F)(F)F)C4)nc21 [Compound 145, 8-[1-(2,2-difluoroethyl)-1H-pyrazolo[3,4-b]pyrazin-6-yl]-2-[3-(trifluoromethyl)pyridin-2-yl]-2,8-diazaspiro[4.5]decane] | 10 to 50 µM |
| FC(F)Cn1ncc2ncc(N3CCC4(CC3)CCN(c3cccnc3C(F)(F)F)C4)nc21 [Compound 146, 8-[1-(2,2-difluoroethyl)-1H-pyrazolo[3,4-b]pyrazin-6-yl]-2-[2-(trifluoromethyl)pyridin-3-yl]-2,8-diazaspiro[4.5]decane] | < 10 µM |

Further lines, results first:

| EC50 | SMILES |
| --- | --- |
| < 10 µM | O=C1N(c2cnc3cnn(CC(F)F)c3n2)CCC12CCN(c1ncccc1C(F)(F)F)CC2 [Compound 120, 2-[1-(2,2-difluoroethyl)-1H-pyrazolo[3,4-b]pyrazin-6-yl]-8-[3-(trifluoromethyl)pyridin-2-yl]-2,8-diazaspiro[4.5]decan-1-one] |
| < 10 µM | O=C1N(c2cnc3cnn(CC(F)F)c3n2)CCC12CCN(c1ccc(C(F)(F)F)cn1)CC2 [Compound 121, 2-[1-(2,2-difluoroethyl)-1H-pyrazolo[3,4-b]pyrazin-6-yl]-8-[5-(trifluoromethyl)pyridin-2-yl]-2,8-diazaspiro[4.5]decan-1-one] |
| < 10 µM | O=C1N(c2cnc3cnn(CC(F)F)c3n2)CCC12CCN(c1cncc(C(F)(F)F)c1)CC2 [Compound 122, 2-[1-(2,2-difluoroethyl)-1H-pyrazolo[3,4-b]pyrazin-6-yl]-8-[5-(trifluoromethyl)pyridin-3-yl]-2,8-diazaspiro[4.5]decan-1-one] |
| < 10 µM | FC(F)Cn1ncc2ncc(N3CC4(CCN(c5ccc(C(F)(F)F)cn5)CC4)C3)nc21 [Compound 124, 2-[1-(2,2-difluoroethyl)-1H-pyrazolo[3,4-b]pyrazin-6-yl]-7-[5-(trifluoromethyl)pyridin-2-yl]-2,7-diazaspiro[3.5]nonane] |
| 50 to 100 µM | O=C1N(c2cccnc2C(F)(F)F)CCC12CCN(c1cnc3cnn(CC(F)F)c3n1)CC2 [Compound 135, 8-[1-(2,2-difluoroethyl)-1H-pyrazolo[3,4-b]pyrazin-6-yl]-2-[2-(trifluoromethyl)pyridin-3-yl]-2,8-diazaspiro[4.5]decan-1-one] |
| < 10 µM | O=C1N(c2cc(C(F)(F)F)ccn2)CCC12CCN(c1cnc3cnn(CC(F)(F)F)c3n1)CC2 [Compound 142, 8-[1-(2,2,2-trifluoroethyl)-1H-pyrazolo[3,4-b]pyrazin-6-yl]-2-[4-(trifluoromethyl)pyridin-2-yl]-2,8-diazaspiro[4.5]decan-1-one] |
| < 10 µM | FC(F)Cn1ncc2ncc(N3CCC4(CCN(c5cccc(C(F)(F)F)n5)C4)CC3)nc21 [Compound 143, 8-[1-(2,2-difluoroethyl)-1H-pyrazolo[3,4-b]pyrazin-6-yl]-2-[6-(trifluoromethyl)pyridin-2-yl]-2,8-diazaspiro[4.5]decane] |
| < 10 µM | FC(F)Cn1ncc2ncc(N3CCC4(CCN(c5ccc(C(F)(F)F)cn5)C4)CC3)nc21 [Compound 144, 8-[1-(2,2-difluoroethyl)-1H-pyrazolo[3,4-b]pyrazin-6-yl]-2-[5-(trifluoromethyl)pyridin-2-yl]-2,8-diazaspiro[4.5]decane] |
| < 10 µM | FC(F)Cn1ncc2ncc(N3CCC4(CCN(c5ccc(C(F)(F)F)nc5)C4)CC3)nc21 [Compound 147, 8-[1-(2,2-difluoroethyl)-1H-pyrazolo[3,4-b]pyrazin-6-yl]-2-[6-(trifluoromethyl)pyridin-3-yl]-2,8-diazaspiro[4.5]decane] |
| < 10 µM | FC(F)Cn1ncc2ncc(N3CCC4(CCN(c5cncc(C(F)(F)F)c5)C4)CC3)nc21 [Compound 148, 8-[1-(2,2-difluoroethyl)-1H-pyrazolo[3,4-b]pyrazin-6-yl]-2-[5-(trifluoromethyl)pyridin-3-yl]-2,8-diazaspiro[4.5]decane] |
